Experimental data reported in US20250313535A1, “ALPHA 4 BETA 7 INTEGRIN MODULATORS AND USES THEREOF” (DICE MOLECULES SV, INC., priority 2022, published 2025).
Like-named read-outs stand apart in the source and are kept apart here.

Legend:
α4β7 integrin = α4β7 integrin (Homo sapiens (Human), UniProt P13612+P26010); assay: Integrin Adhesion Assay: Protocol 4 (MAdCAM-coated plate, RPMI-8866 cells with stable LOF mutation of the ITGB1 gene); type: cell-based
Procedure, shortened: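 RPMI-8866 cells with CRISPR/Cas9 knockout of ITGB1 (2×10^6/mL) were added to MAdCAM-coated wells with compound (1% DMSO) in HEPES/NaCl buffer with 1 mM MnCl2, 0.1 mM CaCl2 and 1% BSA, then incubated 1 h at 37 °C. After four washes, adherent cells were quantified by CellTiter-Glo luminescence. Percent inhibition versus DMSO and control compound was fitted to 4-parameter curves.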

α4β1 integrin = α4β1 integrin (Homo sapiens (Human), UniProt P05556+P13612); assay: Integrin Adhesion Assay: Protocol 5 (VCAM-coated plate, RPMI-8866 cells with stable LOF mutation of the ITGB7 gene); type: cell-based
Procedure, shortened: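 RPMI-8866 B cells with CRISPR/Cas9 ITGB7 knockout (clonal, verified by flow cytometry) adhered to VCAM-coated wells for 1 h at 37° C in HEPES/NaCl buffer with 1 mM MnCl2, 0.1 mM CaCl2, 1% BSA, 1% DMSO. Bound cells quantified by CellTiter-Glo luminescence after washing; % inhibition versus DMSO and control, 4-parameter fit.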

[1] = Protocol 4, RPMI-8866 cells with LOF mutation of ITGB1, MAdCAM, read-out: Mean IC50 α4β7 KO
[2] = Protocol 5, RPMI-8866 cells with LOF mutation of ITGB7, VCAM, read-out: Mean IC50 α4β1 KO
[3] = RPMI-8866 cells with stable LOF mutation of the ITGB1 gene, read-out: Mean IC50 α4β7 KO^a
[4] = RPMI-8866 cells with stable LOF mutation of the ITGB7 gene, read-out: Mean IC50 α4β1 KO^b

Chain of α4β7 integrin (P13612 34-1032): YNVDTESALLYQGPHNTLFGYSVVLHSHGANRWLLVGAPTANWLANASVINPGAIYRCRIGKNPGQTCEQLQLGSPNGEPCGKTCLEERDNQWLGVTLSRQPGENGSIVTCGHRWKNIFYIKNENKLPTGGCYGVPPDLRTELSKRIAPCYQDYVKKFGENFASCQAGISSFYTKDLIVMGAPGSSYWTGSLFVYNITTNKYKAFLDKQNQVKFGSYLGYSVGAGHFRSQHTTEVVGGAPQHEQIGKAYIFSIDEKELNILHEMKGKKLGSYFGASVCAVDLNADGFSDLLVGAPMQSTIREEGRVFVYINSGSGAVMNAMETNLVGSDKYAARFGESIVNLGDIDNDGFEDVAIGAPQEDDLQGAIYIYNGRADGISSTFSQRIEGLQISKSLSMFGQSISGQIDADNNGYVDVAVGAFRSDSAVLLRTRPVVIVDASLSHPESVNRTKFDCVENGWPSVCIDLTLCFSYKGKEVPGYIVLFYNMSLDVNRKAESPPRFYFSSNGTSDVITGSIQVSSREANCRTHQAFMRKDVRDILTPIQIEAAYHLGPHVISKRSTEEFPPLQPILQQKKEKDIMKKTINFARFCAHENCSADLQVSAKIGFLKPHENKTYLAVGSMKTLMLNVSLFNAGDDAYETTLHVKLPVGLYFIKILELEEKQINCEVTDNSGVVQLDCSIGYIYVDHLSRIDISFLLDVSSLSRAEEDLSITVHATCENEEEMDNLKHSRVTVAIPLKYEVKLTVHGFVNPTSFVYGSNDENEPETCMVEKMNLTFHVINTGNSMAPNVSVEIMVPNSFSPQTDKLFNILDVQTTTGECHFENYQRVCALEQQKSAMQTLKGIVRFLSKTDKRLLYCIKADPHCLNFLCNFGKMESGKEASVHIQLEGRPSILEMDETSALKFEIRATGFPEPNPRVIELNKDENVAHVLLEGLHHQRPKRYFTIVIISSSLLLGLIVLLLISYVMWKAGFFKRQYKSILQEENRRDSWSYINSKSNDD
Chain of α4β7 integrin (P26010 20-798): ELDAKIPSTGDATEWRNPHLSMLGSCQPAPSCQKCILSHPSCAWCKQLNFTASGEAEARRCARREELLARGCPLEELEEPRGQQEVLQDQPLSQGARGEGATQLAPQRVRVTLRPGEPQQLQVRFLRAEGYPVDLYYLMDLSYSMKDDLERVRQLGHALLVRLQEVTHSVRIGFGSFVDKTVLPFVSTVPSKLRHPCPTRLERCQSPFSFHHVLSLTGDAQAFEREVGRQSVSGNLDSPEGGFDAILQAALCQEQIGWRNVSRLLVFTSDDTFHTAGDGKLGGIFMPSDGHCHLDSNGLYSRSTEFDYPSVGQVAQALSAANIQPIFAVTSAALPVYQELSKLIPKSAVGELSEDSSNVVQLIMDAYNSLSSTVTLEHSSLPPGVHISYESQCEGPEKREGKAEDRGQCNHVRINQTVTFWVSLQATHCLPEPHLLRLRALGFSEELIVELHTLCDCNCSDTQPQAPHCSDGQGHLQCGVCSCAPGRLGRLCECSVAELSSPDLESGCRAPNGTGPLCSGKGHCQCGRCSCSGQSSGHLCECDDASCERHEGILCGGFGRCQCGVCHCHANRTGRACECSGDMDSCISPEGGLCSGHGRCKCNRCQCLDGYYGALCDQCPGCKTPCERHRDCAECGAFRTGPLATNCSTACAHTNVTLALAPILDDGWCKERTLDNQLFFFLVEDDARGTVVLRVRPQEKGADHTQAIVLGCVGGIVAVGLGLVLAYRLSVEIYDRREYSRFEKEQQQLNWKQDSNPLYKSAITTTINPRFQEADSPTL
Chain of α4β1 integrin (P13612 34-1032): as the sequence (P13612 34-1032) above
Chain of α4β1 integrin (P05556 21-798): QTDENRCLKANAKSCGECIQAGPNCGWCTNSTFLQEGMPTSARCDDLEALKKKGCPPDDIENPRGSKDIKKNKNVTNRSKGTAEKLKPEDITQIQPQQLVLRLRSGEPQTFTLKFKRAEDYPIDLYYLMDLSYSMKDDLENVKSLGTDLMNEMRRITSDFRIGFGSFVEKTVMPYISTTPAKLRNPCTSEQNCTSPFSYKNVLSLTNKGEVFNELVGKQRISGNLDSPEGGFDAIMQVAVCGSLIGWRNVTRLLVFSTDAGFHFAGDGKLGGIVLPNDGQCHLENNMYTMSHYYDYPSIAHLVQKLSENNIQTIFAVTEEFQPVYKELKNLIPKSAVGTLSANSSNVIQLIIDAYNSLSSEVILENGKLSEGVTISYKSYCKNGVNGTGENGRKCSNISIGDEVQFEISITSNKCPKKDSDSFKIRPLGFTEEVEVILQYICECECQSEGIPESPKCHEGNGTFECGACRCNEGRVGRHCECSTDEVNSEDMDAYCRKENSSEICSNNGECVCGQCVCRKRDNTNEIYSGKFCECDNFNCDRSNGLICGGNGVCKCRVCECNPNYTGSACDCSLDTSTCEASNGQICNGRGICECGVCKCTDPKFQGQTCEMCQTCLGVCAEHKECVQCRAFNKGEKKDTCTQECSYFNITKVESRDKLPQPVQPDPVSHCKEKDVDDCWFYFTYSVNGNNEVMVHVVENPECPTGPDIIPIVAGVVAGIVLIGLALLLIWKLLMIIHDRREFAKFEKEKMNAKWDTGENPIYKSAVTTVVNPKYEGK

| SMILES | IC50 (α4β7 integrin; [1]) | IC50 (α4β1 integrin; [2]) | IC50 (α4β7 integrin; [3]) | IC50 (α4β1 integrin; [4]) |
| --- | --- | --- | --- | --- |
| COc1cc(CN2CCC(F)(F)CC2)cnc1-c1cccc2c(C[C@H](NC(=O)C3(C(F)(F)F)CCN(CC(F)F)CC3)C(=O)O)cccc12 [Compound 928] | < 10 nM | > 1000 nM | – | – |
| COc1cccc(CN2CCC(F)CC2)c1-c1cccc2c(C[C@H](NC(=O)c3c(C)cccc3F)C(=O)O)cccc12 [Compound 1024] | 10 to 100 nM | > 1000 nM | – | – |
| COc1cccc(F)c1C(=O)N[C@@H](Cc1cccc2c(-c3c(CN4CCCCC4)cccc3OC)cccc12)C(=O)O [Compound 675] | – | – | < 10 nM | 100 to 1000 nM |
| O=C(O)[C@H](Cc1cccc2c(-c3nccc4c(CN5CCOC(C(F)(F)F)C5)cccc34)cccc12)NC(=O)C1(C(F)(F)F)CCN(CC(F)(F)F)CC1 (stereo partly drawn) [Compound 660] | – | – | 10 to 100 nM | > 1000 nM |
| O=C(O)[C@H](Cc1cccc2c(-c3cc4ccccc4cn3)cccc12)NC(=O)C1(C(F)(F)F)CCN(C2COC2)CC1 [Compound 525] | – | – | 10 to 100 nM | > 1000 nM |
| CC1(C)CCCN(Cc2cnc(-c3cccc4c(C[C@H](NC(=O)C5(C(F)(F)F)CCN(CC(F)(F)F)CC5)C(=O)O)cccc34)c3ccccc23)CC1 [Compound 876] | < 10 nM | > 1000 nM | – | – |
| COc1ccc(CN2CCCC(F)(F)C2)c(OC)c1-c1cccc2c(C[C@H](NC(=O)C3(C(F)(F)F)CCN(CC(F)(F)F)CC3)C(=O)O)cccc12 [Compound 825] | 10 to 100 nM | > 1000 nM | – | – |
| O=C(O)[C@H](Cc1cccc2c(-c3ncccc3CCN3CCCCC3)cccc12)NC(=O)C1(C(F)(F)F)CCN(CC(F)(F)F)CC1 [Compound 965] | 10 to 100 nM | > 1000 nM | – | – |
| COc1ccc(CN2CCC(F)(F)CC2)c(OC)c1-c1cccc2c(C[C@H](NC(=O)c3c(C)cc(C45CCOCC4C5)cc3F)C(=O)O)cccc12 (stereo partly drawn) [Compound 616] | – | – | 10 to 100 nM | > 1000 nM |
| Cn1c(=O)c(-c2cccc3c(C[C@H](NC(=O)c4c(F)cccc4F)C(=O)O)cccc23)c(C(F)(F)F)c2cc(CO)ccc21 [Compound 1043] | 10 to 100 nM | > 1000 nM | – | – |
| COc1ccc(CN2CCC3(CCCCC3)CC2)c(OC)c1-c1cccc2c(C[C@H](NC(=O)C3(C(F)(F)F)CCN(CC(F)(F)F)CC3)C(=O)O)cccc12 [Compound 813] | < 10 nM | > 1000 nM | – | – |
| COc1cccc(CN2CCCCC2)c1-c1cccc2c(C[C@H](NC(=O)c3c(C)cccc3F)C(=O)O)cccc12 [Compound 1014] | < 10 nM | 100 to 1000 nM | – | – |
| COc1cccc(CCN2CCC[C@@H](F)C2)c1-c1cccc2c(C[C@H](NC(=O)c3c(C)cccc3F)C(=O)O)cccc12 [Compound 1036] | < 10 nM | > 1000 nM | – | – |
| COc1cc(CN2CCC(C)(C)CC2)cnc1-c1cccc2c(C[C@H](NC(=O)c3c(C)cccc3F)C(=O)O)cccc12 [Compound 1005] | 10 to 100 nM | > 1000 nM | – | – |
| COc1ccc(CN2CCC(F)(F)CC2)c(OC)c1-c1cccc2c(C[C@H](NC(=O)C3(C(F)(F)F)CCN(C4COCC4(F)F)CC3)C(=O)O)cccc12 (single isomer, unassigned) [Compound 640] | – | – | 10 to 100 nM | > 1000 nM |
| COc1ccc(CN2C[C@@H](C)O[C@@H](C)C2)c(OC)c1-c1cccc2c(C[C@H](NC(=O)c3c(C)cccc3F)C(=O)O)cccc12 [Compound 651] | – | – | < 10 nM | 100 to 1000 nM |
| CC(=O)CN1CCC(C(=O)N[C@@H](Cc2cccc3c(-c4c(C(F)(F)F)c5ccccc5n(C)c4=O)cccc23)C(=O)O)(C(F)(F)F)CC1 [Compound 519] | – | – | < 10 nM | 100 to 1000 nM |
| O=C(O)[C@H](Cc1cccc2c(-c3ncc(CN4CCCCC4)c4ccccc34)cccc12)NC(=O)C1(C(F)(F)F)CCN(CC(F)F)CC1 [Compound 888] | < 10 nM | > 1000 nM | – | – |
| CN(C)Cc1cnc(-c2cccc3c(C[C@H](NC(=O)C4(C(F)(F)F)CCN(CC(F)(F)F)CC4)C(=O)O)cccc23)c2ccccc12 [Compound 921] | < 10 nM | 100 to 1000 nM | – | – |
| COc1ccc(CN2CCCC2)c(OC)c1-c1cccc2c(C[C@H](NC(=O)c3c(C)cccc3F)C(=O)O)cccc12 [Compound 596] | – | – | < 10 nM | 100 to 1000 nM |
| O=C(O)[C@H](Cc1cccc2c(-c3nccc4ccc(CCCN5C6CCCC5CC6)cc34)cccc12)NC(=O)C1(C(F)(F)F)CCN(CC(F)(F)F)CC1 [Compound 744] | < 10 nM | > 1000 nM | – | – |
| O=C(O)[C@H](Cc1cccc2c(-c3ncc(CN4CCN(C5CC5)CC4)cc3C3CC3)cccc12)NC(=O)C1(C(F)(F)F)CCN(CC(F)(F)F)CC1 [Compound 948] | < 10 nM | 100 to 1000 nM | – | – |
| O=C(O)[C@H](Cc1cccc2c(-c3ncc(CN4CCCCC4)cc3C(F)(F)F)cccc12)NC(=O)C1(C(F)(F)F)CCN(CC(F)(F)F)CC1 [Compound 881] | 10 to 100 nM | > 1000 nM | – | – |

| SMILES | IC50 (α4β7 integrin; [1]) | IC50 (α4β1 integrin; [2]) | IC50 (α4β7 integrin; [3]) | IC50 (α4β1 integrin; [4]) |
| --- | --- | --- | --- | --- |
| CC1(C)CCN(Cc2ccc(-c3cccc4c(C[C@H](NC(=O)C5(C(F)(F)F)CCN(CC(F)(F)F)CC5)C(=O)O)cccc34)c3cnccc23)CC1 [Compound 986] | < 10 nM | 100 to 1000 nM | – | – |
| COc1cncc(OC)c1-c1cccc2c(C[C@H](NC(=O)c3c(C)cccc3F)C(=O)O)cccc12 [Compound 477] | – | – | < 10 nM | 100 to 1000 nM |
| Cn1c(=O)c(-c2cccc3c(C[C@H](NC(=O)C4(C(F)(F)F)CCN(CC(F)(F)F)CC4)C(=O)O)cccc23)c(C(F)(F)F)c2cc(CN3CCC(F)(F)CC3)ccc21 [Compound 835] | 10 to 100 nM | 100 to 1000 nM | – | – |
| COc1ccc(CN2CCC(F)(F)CC2)c(OC)c1-c1cccc2c(C[C@H](NC(=O)c3c(C)cc4cn(CC(F)(F)F)nc4c3F)C(=O)O)cccc12 [Compound 664] | – | – | 100 to 1000 nM | > 1000 nM |
| COc1ccc(CN2CCCCC2)c(OC)c1-c1cccc2c(C[C@H](NC(=O)c3c(F)cccc3C#N)C(=O)O)cccc12 [Compound 646] | – | – | 100 to 1000 nM | > 1000 nM |
| COc1ccc(CN2CC(c3ccccc3)C2)c(OC)c1-c1cccc2c(C[C@H](NC(=O)C3(C(F)(F)F)CCN(CC(F)(F)F)CC3)C(=O)O)cccc12 [Compound 815] | 10 to 100 nM | > 1000 nM | – | – |
| COc1ccc(CN(C)C)c(OC)c1-c1cccc2c(C[C@H](NC(=O)c3c(Cl)cccc3Cl)C(=O)O)cccc12 [Compound 612] | – | – | < 10 nM | 100 to 1000 nM |
| O=C(O)[C@H](Cc1cccc2c(-c3ccc(CN4CCCCC4)c4ccncc34)cccc12)NC(=O)C1(C(F)(F)F)CCN(CC(F)(F)F)CC1 [Compound 702] | < 10 nM | > 1000 nM | – | – |
| C[C@@H]1CN(Cc2cnc(-c3cccc4c(C[C@H](NC(=O)C5(C(F)(F)F)CCN(CC(F)(F)F)CC5)C(=O)O)cccc34)c3ccccc23)C[C@H](C)N1 [Compound 893] | < 10 nM | 100 to 1000 nM | – | – |
| CN(C)CCc1ccc2c(c1)c(C(F)(F)F)c(-c1cccc3c(C[C@H](NC(=O)C4(C(F)(F)F)CCN(CC(F)(F)F)CC4)C(=O)O)cccc13)c(=O)n2C [Compound 707] | < 10 nM | 10 to 100 nM | – | – |
| CC1OCCC1N1CCC(C(=O)N[C@@H](Cc2cccc3c(-c4c(C(F)(F)F)c5ccccc5n(C)c4=O)cccc23)C(=O)O)(C(F)(F)F)CC1 (stereo partly drawn) [Compound 509] | – | – | < 10 nM | 100 to 1000 nM |
| COc1ccc(CN2CCC3(CC2)CC3)c(OC)c1-c1cccc2c(C[C@H](NC(=O)c3c(C)cccc3F)C(=O)O)cccc12 [Compound 623] | – | – | < 10 nM | 100 to 1000 nM |
| CC(C)(C)C1CCN(CCc2cnc(-c3cccc4c(C[C@H](NC(=O)C5(C(F)(F)F)CCN(CC(F)(F)F)CC5)C(=O)O)cccc34)c3ccccc23)CC1 [Compound 981] | < 10 nM | > 1000 nM | – | – |
| O=C(O)[C@H](Cc1cccc2c(-c3ccc(CN4CCCCC4)c4ccncc34)cccc12)NC(=O)C1(C(F)(F)F)CCN(CC(F)(F)F)CC1 [Compound 555] | – | – | < 10 nM | > 1000 nM |
| Cc1cccc(F)c1C(=O)N[C@@H](Cc1cccc2c(-c3c(C(F)(F)F)c4cc(CCN5CCC(F)(F)C5)ccc4n(C)c3=O)cccc12)C(=O)O [Compound 712] | 10 to 100 nM | > 1000 nM | – | – |
| COc1ccc(CN2CC(OC)C2)c(OC)c1-c1cccc2c(C[C@H](NC(=O)c3c(C)cccc3F)C(=O)O)cccc12 [Compound 638] | – | – | < 10 nM | 100 to 1000 nM |
| COc1ccc2c(c1-c1cccc3c(C[C@H](NC(=O)c4c(C)cccc4F)C(=O)O)cccc13)CCN(C)C2 [Compound 998] | < 10 nM | 100 to 1000 nM | – | – |
| COc1c(CN2CCCCC2)ccc(OC(F)(F)F)c1-c1cccc2c(C[C@H](NC(=O)c3c(C)cccc3F)C(=O)O)cccc12 [Compound 704] | 10 to 100 nM | > 1000 nM | – | – |
| Cc1c(CCN2CCC(F)(F)CC2)ccnc1-c1cccc2c(C[C@H](NC(=O)C3(C(F)(F)F)CCN(CC(F)(F)F)CC3)C(=O)O)cccc12 [Compound 716] | < 10 nM | > 1000 nM | – | – |
| O=C(O)[C@H](Cc1cccc2c(-c3ncc(CN4CCCCC4)cc3C3CC3)cccc12)NC(=O)C1(C(F)(F)F)CCN(CC(F)(F)F)CC1 [Compound 882] | < 10 nM | 100 to 1000 nM | – | – |
| CCOCc1cc(CN2CCCCC2)c(-c2cccc3c(C[C@H](NC(=O)c4c(C)cccc4F)C(=O)O)cccc23)c(OC)c1 [Compound 1000] | < 10 nM | 100 to 1000 nM | – | – |
| COc1ccc(CN2CCC(F)(F)CC2)c(OC)c1-c1cccc2c(C[C@H](NC(=O)c3c(F)ccnc3C)C(=O)O)cccc12 [Compound 615] | – | – | 10 to 100 nM | > 1000 nM |
